Patent US10034476B2, “Insecticidal phenyl-or pyridyl-piperdine compounds” (Syngenta Participations AG, priority 2008, dated 2018)

Legend:
Type in all cases: in vivo
[1] = tested on: Diabrotica balteata; test: Diabrotica balteata (corn root worm) artificial diet test; details: 120 h, 200 ppm (concentration in well 18 ppm), L2 larvae, 5 days, larval mortality, growth regulation
Description: Diabrotica Balteata (Corn Root Worm): A 24-well microtiter plate (MTP) with artificial diet was treated with test solutions at an application rate of 200 ppm (concentration in well 18 ppm) by pipetting. After drying, the MTP's were infested with larvae (L2) (6-10 per well). After an incubation period of 5 days, samples were checked for larval mortality, and growth regulation.

[2] = tested on: Heliothis virescens; test: Heliothis virescens (tobacco budworm) egg/artificial diet test; details: 96 h, 200 ppm (concentration in well 18 ppm), eggs 0-24 h old on artificial diet, 4 days, egg mortality, larval mortality, growth regulation
Description: Heliothis virescens (Tobacco Budworm): Eggs (0-24 h old) were placed in 24-well microtiter plate on artificial diet and treated with test solutions at an application rate of 200 ppm (concentration in well 18 ppm) by pipetting. After an incubation period of 4 days, samples were checked for egg mortality, larval mortality, and growth regulation.

[3] = tested on: Plutella xylostella; test: Plutella xylostella (diamond back moth) artificial diet test; details: 144 h, 200 ppm (concentration in well 18 ppm), L2 larvae, 6 days, larval mortality, growth regulation
Description: Plutella xylostella (Diamond Back Moth): 24-well microtiter plate (MTP) with artificial diet was treated with test solutions at an application rate of 200 ppm (concentration in well 18 ppm) by pipetting. After drying, the MTP's were infested with L2 larvae (7-12 per well). After an incubation period of 6 days, samples were checked for larval mortality and growth regulation.

[4] = tested on: Spodoptera littoralis; test: Spodoptera littoralis (Egyptian cotton leafworm) cotton leaf disc spray test; details: foliar, 72 h, 200 ppm spray on cotton leaf discs, L1 larvae, 3 DAT, mortality, feeding behavior, growth regulation
Text: Spodoptera littoralis (Egyptian Cotton Leafworm) Cotton leaf discs were placed on agar in a 24-well microtiter plate and sprayed with test solutions at an application rate of 200 ppm. After drying, the leaf discs were infested with 5 L1 larvae. The samples were checked for mortality, feeding behavior, and growth regulation 3 days after treatment (DAT).

Measured: pest or weed control at 200 ppm

O=C(Nc1ccc(C(F)(F)F)nc1C1CCN(Cc2ccc(-c3ccc(F)cc3)cc2)CC1)c1ccnc(Cl)c1 [Compound M4]
≥ 80%: all assays above

O=C(Nc1ccc(OC(F)F)nc1C1CCN(Cc2ccc(-c3ccc(F)cc3)cc2)CC1)c1ccnc(Cl)c1 [Compound C40, 2-chloro-N-{1′-(4′-fluoro-biphenyl-4-ylmethyl)-6-difluoromethoxy-1′,2′,3′,4′,5′,6′-hexahydro-[2,4′]bipyridinyl-3-yl}-isonicotinamide]
≥ 80%: all assays above

COc1ccc(NC(=O)c2ccnc(Cl)c2)c(C2CCN(Cc3ccc(-c4ccc(F)cc4)cc3)CC2)n1 [Compound C10, 2-chloro-N-[1′-(4′-fluoro-biphenyl-4-ylmethyl)-6-methoxy-1′,2′,3′,4′,5′,6′-hexahydro-[2,4′]bipyridinyl-3-yl]-isonicotinamide]
≥ 80%: all assays above

O=C(Nc1ccc(C(F)(F)F)cc1C1CC[N+](O)(Cc2ccc(-c3ccc(F)cc3)cc2)CC1)c1ccnc(Cl)c1 (stereo not drawn) [Compound J1]
≥ 80%: all assays above

O=C(Nc1c(F)cc(C(F)(F)F)nc1C1CCN(Cc2ccc(-c3ccc(F)cc3)cc2)CC1)c1ccnc(Cl)c1 [Compound C41, 2-chloro-N-{1′-(4′-fluoro-biphenyl-4-ylmethyl)-4-fluoro-6-trifluoromethyl-1′,2′,3′,4′,5′,6′-hexahydro-[2,4′]bipyridinyl-3-yl}-isonicotinamide]
≥ 80%: all assays above

O=C(Nc1cc(Br)cnc1C1CCN(Cc2ccc(-c3ccc(F)cc3)cc2)CC1)c1ccnc(Cl)c1 [Compound C23, N-[5-bromo-1′-(4′-fluoro-biphenyl-4-ylmethyl)-1′,2′,3′,4′,5′,6′-hexahydro-[2,4′]bipyridinyl-3-yl]-2-chloro-isonicotinamide]
≥ 80%: all assays above

O=C(Nc1ccc(C(F)F)nc1C1CCN(Cc2ccc(-c3ccc(F)cc3)cc2)CC1)c1ccnc(Cl)c1 [Compound C6]
≥ 80%: all assays above

O=C(Nc1cc(C(F)(F)F)c(Br)nc1C1CCN(Cc2ccc(-c3ccc(F)cc3)cc2)CC1)c1ccnc(Cl)c1 [Compound C15]
≥ 80%: all assays above

O=C(Nc1cc(F)c(Br)nc1C1CCN(Cc2ccc(-c3ccc(F)cc3)cc2)CC1)c1ccnc(Cl)c1 [Compound C5, N-[6-bromo-5-fluoro-1′-(4′-fluoro-biphenyl-4-ylmethyl)-1′,2′,3′,4′,5′,6′-hexahydro-[2,4′]bipyridinyl-3-yl]-2-chloro-isonicotinamide]
≥ 80%: all assays above
